Data on 38 molecules can be found in patent US8815872B2, “Macrocyclics pyrimidines as aurora kinase inhibitors” (Merck Patent GmbH, priority 2008, dated 2014).

As usually defined, the IC50 is the concentration at which inhibition is half-maximal.

The target in one assay is T1, Aurora A (Homo sapiens, UniProt O14965).
T1 construct: N-terminal GST fusion with full length Aurora A (1-403 amino acids); purchased Carna Biosciences 05-101
T1 sequence (O14965 1-403): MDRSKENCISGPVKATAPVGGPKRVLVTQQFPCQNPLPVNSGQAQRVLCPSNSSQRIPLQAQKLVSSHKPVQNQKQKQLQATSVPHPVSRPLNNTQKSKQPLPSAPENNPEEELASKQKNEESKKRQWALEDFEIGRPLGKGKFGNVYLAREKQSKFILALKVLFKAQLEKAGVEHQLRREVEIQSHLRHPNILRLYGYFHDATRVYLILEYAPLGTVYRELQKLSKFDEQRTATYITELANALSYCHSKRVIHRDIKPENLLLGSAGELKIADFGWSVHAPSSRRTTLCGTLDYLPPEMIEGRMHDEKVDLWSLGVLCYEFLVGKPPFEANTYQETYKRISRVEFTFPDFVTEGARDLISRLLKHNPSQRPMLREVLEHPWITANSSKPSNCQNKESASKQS
Nature of the assay: Aurora A enzyme assay (Caliper LC3000 mobility shift). Format: biochemical. On the procedure: (§1) The Aurora and other kinase assays described here were performed on two Caliper Life Sciences systems, the LC3000 and the Desktop Profiler. These provide data on enzyme activity via measurement of the relative amounts of phosphorylated or unphosphorylated fluorescently labelled substrate peptide at the end of an enzymatic reaction. These different states of peptide are resolved by applying a potential difference across the sample. The presence of a charged phosphate group on the product (as opposed to the substrate) causes a different peptide mobility between the two peptides. This is visualized by excitation of a fluorescent label on the substrate and product peptides and represented as peaks within the analysis software.
For example, in order to measure inhibitor activity of Aurora A inhibitors in the Caliper Life Sciences LC3000, a TTP Mosquito liquid handling instrument was used to place […] of an appropriate concentration of inhibitor in 100% DMSO (for a dose response curve calculation) into each well of a 384-well plate. To this reaction components were added to a final volume of 25 μl: • 0.067 ng/μl GST-Aurora A (Carna Biosciences 05-101. N-terminal GST fusion with full length Aurora A (1-403 amino acids), accession number NP_940835.1). • 15 μM ATP (Fluka, 02055) • 1 mM DTT (Sigma, D0632) • 1 mM MgC12 (Sigma, M1028) • 1 μM substrate peptide (sequence FITC-LRRASLG-(CONH2), synthesized by Tufts Peptide Synthesis service. • 100 mM HEPES pH 7.5 (Calbiochem, 391338) • 0.015% Brij-35 (Sigma, B4184)
The reaction was incubated for 90 min at 25° C., and then stopped by the addition of 70 μl of Stop buffer (100 mM HEPES pH 7.5, 0.015% Brij-35, 10 mM EDTA (Sigma, E7889)).
The plate was read on a Caliper LC 3000 in an Off-Chip mobility shift assay format, using the following parameters for a 12-sipper chip: screening pressure −1.8 psi, upstream voltage −2700, downstream voltage −1000. These conditions cause unphosphorylated substrate and phosphorylated product peptide to resolve as separate peaks allowing direct measurement of percentage of conversion of substrate to product. The percent conversion was plotted against concentration of inhibitor to produce a sigmoidal dose response curve, from which an IC50 was calculated using XLFit for Microsoft Excel.

A further assay has as its target Aurora B (Homo sapiens, UniProt Q96GD4). Briefly: Aurora B enzyme assay (Caliper). It is filed as biochemical. The procedure:
as §1

The subject of a further assay is MiaPaca2. Briefly: Cellular activity MiaPaca2. Format: cell-based. Particulars: Homo sapiens, MIA PaCa-2. The procedure:
(§2) The susceptibility of a particular cell to treatment with the compounds according to the invention was determined by in vitro tests. Typically, a culture of the cell was combined with a compound according to the invention at various concentrations for a period of time that was sufficient to allow the active agents to induce cell death or to inhibit migration, usually between about one hour and one week. In vitro testing was carried out using cultivated cells from a biopsy sample. The viable cells remaining after the treatment then were counted.

In the next assay the test system is A549. Nature of the assay: Cellular activity A549. Particulars: Homo sapiens. Format: cell-based. The procedure: as §2

Chain of Aurora B (Q96GD4 whole entry): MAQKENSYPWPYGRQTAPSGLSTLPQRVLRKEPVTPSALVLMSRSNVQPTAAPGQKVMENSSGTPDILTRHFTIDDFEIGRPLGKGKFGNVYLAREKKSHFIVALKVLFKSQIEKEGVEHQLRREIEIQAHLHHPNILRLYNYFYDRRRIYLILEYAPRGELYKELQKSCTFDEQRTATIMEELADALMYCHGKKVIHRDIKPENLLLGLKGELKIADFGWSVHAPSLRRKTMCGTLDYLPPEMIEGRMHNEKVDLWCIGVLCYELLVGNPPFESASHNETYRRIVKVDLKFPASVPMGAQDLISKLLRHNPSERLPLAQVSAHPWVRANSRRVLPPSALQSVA

On to `Fc1cnc2nc1N[C@@H]1CCC[C@H](C1)OCCCCOc1cccc(c1)N2`, for which, at Aurora A, the IC50 fell in the range of 101 to 1000 nM.
As for `NC(=O)[C@H]1[C@@H]2CC3NNC(=O)Cc4cccc(c4)Nc4ncc(F)c(n4)N[C@@H]1[C@@H]3C2` (some centres unmarked), the IC50 is 1 to 100 nM at Aurora A, 1 to 100 nM at Aurora B, above 6250 nM in the assay on MiaPaca2 and above 6250 nM in the assay on A549.
For the molecule `NC(=O)[C@H]1[C@H]2C[C@H]3[C@H]1Nc1nc(ncc1F)Nc1cccc(c1)COCc1cn(nn1)[C@@H]3C2`, the IC50 on Aurora A was in the range of 1 to 100 nM; in the assay with MiaPaca2, 1000 to 6250 nM; with A549 it was 1000 to 6250 nM.
Consider `NC(=O)[C@H]1[C@H]2C[C@H]3[C@H]1Nc1nc(ncc1F)Nc1cccc(c1)C(O)CN[C@@H]3C2` (some centres unmarked), for which the IC50 at Aurora A is 101 to 1000 nM; against Aurora B, 1 to 100 nM; in the assay with MiaPaca2, 1000 to 6250 nM; in the assay on A549 it was 1000 to 6250 nM.
Regarding `Fc1cnc2nc1NC1CCCC(C1)OC/C=C\COc1cccc(c1)N2` (centres unmarked), the IC50 at Aurora A and on Aurora B was 101 to 1000 nM in each case.
`O[C@@H]1COC2CCCC(C2)Nc2nc(ncc2F)Nc2cccc(c2)OC[C@@H]1O` (some centres unmarked): the IC50 on Aurora A is 101 to 1000 nM.
With `NC(=O)[C@H]1[C@H]2C[C@H]3[C@H]1Nc1nc(ncc1F)Nc1cccc(c1)CCS[C@@H]3C2` [drawing 234], the IC50 lay in the range of 1 to 100 nM at Aurora A, 1 to 100 nM against Aurora B, 1000 to 6250 nM with MiaPaca2 and 1000 to 6250 nM with A549.
Take `NC(=O)[C@H]1[C@H]2C[C@H]3[C@H]1Nc1nc(ncc1F)Nc1ccc4c(c1)CN(CC4)C(=O)CS[C@@H]3C2`: the IC50 is 1 to 100 nM on Aurora A, 1 to 100 nM against Aurora B, 1000 to 6250 nM with MiaPaca2 and 1000 to 6250 nM with A549.
Consider `NC(=O)[C@H]1[C@H]2C[C@H]3[C@H]1Nc1nc(ncc1F)Nc1cccc(c1)CC[S+]([O-])[C@@H]3C2` (some centres unmarked), for which the IC50 at Aurora A fell in the range of 1 to 100 nM; on Aurora B, 1 to 100 nM; with MiaPaca2, 1000 to 6250 nM; with A549, 1000 to 6250 nM.
In the case of `CN1CCN(c2ccc3cc2OCCN(C)[C@@H]2C[C@@H]4C[C@H]2[C@@H](Nc2nc(ncc2F)N3)[C@H]4C(N)=O)CC1`, the IC50 on Aurora A and at Aurora B was 1 to 100 nM in each case.
Consider `CN1CCN(c2ccc3cc2NC(=O)CN[C@@H]2C[C@@H]4C[C@H]2[C@@H](Nc2nc(ncc2F)N3)[C@H]4C(N)=O)CC1`, for which the IC50 lay in the range of 1 to 100 nM at Aurora A, 1 to 100 nM against Aurora B, 1000 to 6250 nM in the assay with MiaPaca2 and 1000 to 6250 nM in the assay on A549.
For the molecule `NC(=O)[C@H]1[C@H]2C[C@H]3[C@H]1Nc1nc(ncc1F)Nc1cccc(c1)/C=C\S[C@@H]3C2`, the IC50 at Aurora A lay within 101 to 1000 nM.
Take `NC(=O)[C@H]1[C@H]2C[C@H]3[C@H]1Nc1nc(ncc1F)Nc1cccc(c1)C(O)CS[C@@H]3C2` (some centres unmarked): the figures for the IC50 on Aurora A, with MiaPaca2 and in the assay on A549 were 1 to 100 nM, 101 to 1000 nM and 101 to 1000 nM, respectively.
Take `NC(=O)[C@H]1[C@@H]2C[C@H]3CNS(=O)(=O)c4cccc(c4)Nc4ncc(F)c(n4)N[C@@H]1[C@@H]3C2`: the IC50 at Aurora A is 1 to 100 nM; against Aurora B it was 1 to 100 nM; in the assay with MiaPaca2, 1000 to 6250 nM; in the assay with A549, 1000 to 6250 nM.
For the molecule `CN1CCN(c2ccc3cc2C(=O)CS(=O)(=O)[C@@H]2C[C@@H]4C[C@H]2[C@@H](Nc2nc(ncc2F)N3)[C@H]4C(N)=O)CC1`, the results for the 50% inhibitory concentration (IC50) on Aurora A and at Aurora B were 1 to 100 nM and 1000 to 6250 nM, respectively.
Turning to `NC[C@H]1[C@H]2C[C@H]3[C@H]1Nc1nc(ncc1F)Nc1cccc(c1)C(O)CS[C@@H]3C2` (some centres unmarked), the concentration for half-maximal inhibition (IC50) on Aurora A is 1000 to 6250 nM; in the assay with MiaPaca2, above 6250 nM; with A549, above 6250 nM.
In the case of `NC(=O)[C@H]1[C@H]2C[C@H]3[C@H]1Nc1nc(ncc1F)Nc1cccc(c1)CS(=O)(=O)N[C@@H]3C2`, the IC50 at Aurora A and against Aurora B was 101 to 1000 nM in each case.
As for `NC(=O)[C@H]1[C@H]2C[C@H]3[C@H]1Nc1nc(ncc1F)Nc1cccc(c1)[C@@H](O)CS[C@@H]3C2`, the IC50 at Aurora A lay within 1 to 100 nM; at Aurora B, 1 to 100 nM; in the assay with MiaPaca2 it was 101 to 1000 nM; in the assay on A549 it was 101 to 1000 nM.
Regarding `NC(=O)[C@H]1C([C@@H](O)CO)CC2[C@H]1Nc1nc(ncc1F)Nc1cccc(c1)OC[C@H](O)[C@H]2O` (some centres unmarked), the IC50 on Aurora A is 1000 to 6250 nM.
Consider `C=CC(=O)NC[C@H]1[C@H]2C[C@H]3[C@H]1Nc1nc(ncc1F)Nc1cccc(c1)C(O)CS[C@@H]3C2` (some centres unmarked), for which the IC50 on Aurora A is 101 to 1000 nM; in the assay with MiaPaca2 it was above 6250 nM; with A549, above 6250 nM.
For `Fc1cnc2nc1NC1CCCC(C1)OC/C=C/COc1cccc(c1)N2` (centres unmarked), the IC50 at Aurora A and at Aurora B was 101 to 1000 nM in each case.
For the molecule `CN1CCN(c2ccc3cc2C(O)CS(=O)(=O)[C@@H]2C[C@@H]4C[C@H]2[C@@H](Nc2nc(ncc2F)N3)[C@H]4C(N)=O)CC1` (some centres unmarked), the IC50 on Aurora A and against Aurora B was 1 to 100 nM throughout.
Take `NC(=O)[C@H]1[C@H]2C[C@H]3[C@H]1Nc1nc(ncc1F)Nc1cc(ccc1O)C(=O)CS[C@@H]3C2`: the IC50 on Aurora A and at Aurora B was 1000 to 6250 nM each time.
As for `CC(=O)N1Cc2cccc(c2)Nc2ncc(F)c(n2)N[C@@H]2[C@@H]3C[C@@H](C[C@H]3C1)[C@@H]2C(=O)O`, the results for the IC50 at Aurora A and at Aurora B were 1000 to 6250 nM and above 6250 nM, respectively.
For the molecule `NC(=O)[C@H]1[C@H]2C[C@H]3[C@H]1Nc1nc(ncc1F)Nc1cccc(c1)S(=O)(=O)NC(=O)N[C@@H]3C2`, at Aurora A, the IC50 was in the range of 101 to 1000 nM.
For the molecule `Fc1cnc2nc1N[C@H]1CCC[C@@H](C1)OCCCCOc1cccc(c1)N2`, on Aurora A, the IC50 lay within 1000 to 6250 nM.
Take `NC(=O)[C@H]1[C@H]2C[C@H]3[C@H]1Nc1nc(ncc1F)Nc1ccc(F)c(c1)CC(=O)O[C@@H]3C2`: the IC50 on Aurora A and against Aurora B was 1000 to 6250 nM throughout.
Turning to `CCC1CC2[C@H](O)C(O)COc3cccc(c3)Nc3ncc(F)c(n3)N[C@H]2[C@H]1C(N)=O` (some centres unmarked), at Aurora A, the IC50 lay within 1000 to 6250 nM.
Consider `NC(=O)[C@H]1[C@H]2C[C@H]3[C@H]1Nc1nc(ncc1F)Nc1cccc(c1)N(Cc1cccs1)C(=O)CS[C@@H]3C2`, for which the values for the IC50 on Aurora A and at Aurora B were 101 to 1000 nM and 1000 to 6250 nM, respectively.
For `NC(=O)[C@H]1[C@H]2C[C@H]3[C@H]1Nc1nc(ncc1F)Nc1cnn(c1)CCS[C@@H]3C2`, the IC50 on Aurora A was in the range of 1 to 100 nM.
Turning to `NC(=O)[C@H]1C([C@@H](O)CO)CC2C(O)[C@H](O)COc3cccc(c3)Nc3ncc(F)c(n3)N[C@H]21` (some centres unmarked), on Aurora A, the IC50 is 1000 to 6250 nM.
As to `O[C@@H]1COc2cccc(c2)Nc2ncc(F)c(n2)NC2CCCC(C2)OC[C@@H]1O` (some centres unmarked), the IC50 on Aurora A lay within 101 to 1000 nM.
As for `Fc1cnc2nc1NC1CCC(CC1)OC/C=C/COc1cccc(c1)N2`, the IC50 on Aurora A lay within 101 to 1000 nM.
For `NC(=O)[C@H]1[C@@H]2CC3CNC(=O)Cc4cccc(c4)Nc4ncc(F)c(n4)N[C@@H]1[C@@H]3C2` (some centres unmarked), the IC50 at Aurora A was in the range of 1 to 100 nM.
For `Fc1cnc2nc1NC1CCC(CC1)OC/C=C\COc1cccc(c1)N2`, the IC50 on Aurora A is 101 to 1000 nM; on Aurora B it was above 6250 nM.
For `NC(=O)[C@H]1[C@H]2C[C@H]3[C@H]1Nc1nc(ncc1F)Nc1cccc(c1)NC(=O)CN[C@@H]3C2`, the IC50 on Aurora A was in the range of 1000 to 6250 nM; on Aurora B it was 101 to 1000 nM.
With `CN1CCN(c2ccc3cc2C(=O)CS[C@@H]2C[C@@H]4C[C@H]2[C@@H](Nc2nc(ncc2F)N3)[C@H]4C(N)=O)CC1`, the IC50 on Aurora A fell in the range of 1 to 100 nM; in the assay with MiaPaca2, 1000 to 6250 nM; in the assay on A549 it was 1000 to 6250 nM.
As to `NC(=O)[C@H]1[C@H]2C[C@H]3[C@H]1Nc1nc(ncc1F)Nc1cccc(c1)[C@H](OCCO)CS[C@@H]3C2`, the IC50 was in the range of 1 to 100 nM at Aurora A, 1000 to 6250 nM in the assay on MiaPaca2 and 1000 to 6250 nM in the assay with A549.
